Measured values reported in PubChem BioAssay (NCI).
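Step 1: Grow cells in 96-well plates. Step 2: Expose to compound for 48 hours at 5 concentrations. Step 3: Interpolate endpoints linearly; if unreached, use highest concentration. TGI denotes the concentration required for complete inhibition of growth.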

Experiments:
Experiment in all cases: NCI anticancer screen, dose series, 48 h
[1] = system: 786-0 renal
[2] = system: SK-MEL-28 melanoma
[3] = system: KM20L2 colon
[4] = system: SF-268 CNS
[5] = system: TK-10 renal
[6] = system: K-562 leukemia
[7] = system: COLO 205 colon
[8] = system: SW-620 colon
[9] = system: OVCAR-8 ovarian
[10] = system: OVCAR-4 ovarian
[11] = system: UACC-257 melanoma
[12] = system: A498 renal
[13] = system: SNB-19 CNS
[14] = system: SNB-78 CNS
[15] = system: EKVX NSCLC
[16] = system: NCI-H226 lung
[17] = system: CAKI-1 renal
[18] = system: U251 CNS
[19] = system: ACHN renal
[20] = system: SK-OV-3 ovarian
[21] = system: UO-31 renal
[22] = system: SF-539 CNS
[23] = system: MALME-3M melanoma
[24] = system: OVCAR-3 ovarian
[25] = system: DMS 273 small cell lung
[26] = system: MOLT-4 leukemia
[27] = system: CCRF-CEM leukemia
[28] = system: RXF 393 renal
[29] = system: SN12C renal
[30] = system: A549 NSCLC
[31] = system: IGROV1 ovarian
[32] = system: HOP-62 NSCLC
[33] = system: NCI-H460 lung
[34] = system: NCI-H23 lung
[35] = system: NCI-H522 lung
[36] = system: SK-MEL-2 melanoma
[37] = system: KM12 colon
[38] = system: HCT-15 colon
[39] = system: LOX IMVI melanoma
[40] = system: M19-MEL melanoma
[41] = system: SF-295 CNS
[42] = system: HCT-116 colon
[43] = system: M14 melanoma
[44] = system: HCC-2998 colon
[45] = system: HL-60(TB) leukemia
[46] = system: SR leukemia
[47] = system: DMS 114 small cell lung
[48] = system: OVCAR-5 ovarian
[49] = system: UACC-62 melanoma
[50] = system: RPMI-8226 leukemia
[51] = system: HT29 colon
[52] = system: LXFL 529 NSCLC
[53] = system: MCF7 breast
[54] = system: T-47D breast
[55] = system: SNB-75 CNS
[56] = system: HS 578T breast
[57] = system: MDA-MB-231 breast
[58] = system: NCI/ADR-RES ovarian
[59] = system: DU-145 prostate
[60] = system: MDA-MB-435
[61] = system: HOP-92 NSCLC
[62] = system: SK-MEL-5 melanoma
[63] = system: BT-549 breast
[64] = system: MDA-N
[65] = system: PC-3 prostate

Measured: TGI

CN(C)c1ccc(C=NC23CC4CC(CC(C4)C2)C3)cc1
> 100 µM: [1] | [2] | [3] | [4] | [5] | [6] | [7] | [8] | [9] | [10] | [11] | [12] | [13] | [14] | [15] | [16] | [17] | [18] | [19] | [20] | [21] | [22] | [23] | [24] | [25] | [26] | [27] | [28] | [29] | [30] | [31] | [32] | [33] | [34] | [35] | [36] | [37] | [38] | [39] | [40] | [41] | [42] | [43] | [44] | [45] | [46] | [47] | [48] | [49] | [50] | [51]

CC(SC(=S)Nc1cccc(F)c1)C(=O)O (stereo not given)
34.9 µM: [35]
> 100 µM: [1] | [5] | [8] | [10] | [14] | [15] | [17] | [19] | [24] | [29] | [30] | [44] | [48] | [51]
46.5 µM: [26] | [36]
83.7 µM: [38]
29.1 µM: [28]
44.3 µM: [16]
68 µM: [33]
69.1 µM: [52]
34.3 µM: [50]
38 µM: [22]
36.4 µM: [49]
52.3 µM: [34]
74.5 µM: [21]
32.6 µM: [4]
32.1 µM: [2]
11 µM: [31]
31.7 µM: [47]
24.5 µM: [25]
32.4 µM: [39]
52.7 µM: [41]
84.9 µM: [18]
55.3 µM: [27]
30.8 µM: [46]
99.6 µM: [13]
29.4 µM: [45]
59.6 µM: [32]
77 µM: [12]
38.9 µM: [6]
37.6 µM: [42]
35 µM: [43]
90.8 µM: [3]
76 µM: [9]
33.5 µM: [11]

CCN(CC)c1ncnc2c1ncn2CCNC(CO)(CO)CO
> 100 µM: [1] | [2] | [53] | [54] | [4] | [5] | [6] | [7] | [8] | [9] | [10] | [55] | [11] | [12] | [13] | [15] | [56] | [16] | [17] | [18] | [19] | [57] | [20] | [21] | [22] | [23] | [24] | [58] | [26] | [59] | [27] | [28] | [60] | [29] | [30] | [61] | [31] | [32] | [33] | [34] | [35] | [36] | [37] | [62] | [38] | [63] | [64] | [39] | [65] | [41] | [42] | [43] | [44] | [45] | [46] | [48] | [49] | [50] | [51]

CN(CCN(C)CCN(C)C(=O)Cc1ccc(Cl)c(Cl)c1)CCN1CCCC1
29.1 µM: [26]
51.7 µM: [54]
16.6 µM: [49]
82.1 µM: [33]
39 µM: [28]
35.3 µM: [62]
22.8 µM: [50]
41.5 µM: [41]
32 µM: [12]
3.93 µM: [21]
86.1 µM: [32]
17.5 µM: [11]
77.1 µM: [63]
21.6 µM: [60]
34.1 µM: [46]
33.8 µM: [7]
12.9 µM: [6]
25.1 µM: [64]
27.3 µM: [51]
24.1 µM: [61]
36.6 µM: [23]
57.2 µM: [53]
58.1 µM: [5]
46.2 µM: [22]
41.3 µM: [18]
53.9 µM: [57]
61.3 µM: [16] | [45]
73.3 µM: [55]
6.07 µM: [2]
41.4 µM: [35]
31.8 µM: [36]
49.6 µM: [1]
30.9 µM: [27]
> 100 µM: [4] | [8] | [9] | [10] | [13] | [15] | [56] | [17] | [19] | [20] | [24] | [58] | [59] | [29] | [30] | [31] | [34] | [37] | [38] | [65] | [42] | [43] | [48]
36.3 µM: [39]
26 µM: [44]

Cn1c([N+](=O)[O-])cnc1CN1CCN(CCO)CC1
> 100 µM: [1] | [2] | [53] | [54] | [4] | [5] | [6] | [7] | [8] | [9] | [10] | [55] | [11] | [12] | [13] | [15] | [56] | [16] | [17] | [18] | [19] | [57] | [20] | [21] | [22] | [23] | [24] | [58] | [26] | [59] | [27] | [28] | [60] | [29] | [30] | [61] | [31] | [32] | [33] | [34] | [35] | [36] | [37] | [62] | [38] | [63] | [64] | [39] | [65] | [41] | [42] | [43] | [44] | [45] | [46] | [48] | [49] | [50] | [51]
